Test system: HIV
Test: HIV infection in cell culture (H9 cells, 2% FCS)
Format: cell-based
Settings: Human immunodeficiency virus 1, HIV-infected H9 cells, suppression of 50% of virus-induced syncytia
Protocol: The HIV test is conducted according to the method of Pauswels et al. [cf. Journal of Virological Methods 1988, 20, 309-321], with modifications.
Primary human blood lymphocytes (PBLs) are enriched using Ficoll-Hypaque and stimulated, in RPMI 1640 medium, 20% fetal calf serum, with phytohemagglutinin (90 μg/ml) and interleukin-2 (40 U/ml). For the infection with the infectious HIV, the PBLs are pelletted and the cell pellet is subsequently suspended in 1 ml of a suitable diluted HIV virus adsorption solution and incubated for 1 hour at 37° C. (pellet infection). Unabsorbed virus is subsequently removed by centrifugation, and the infected cells are transferred to test plates (e.g. 96-well microtiter plates), which contain the test substances in a suitable dilution.
Alternatively, for example HIV-susceptible, permanent H9 cells (ATCC or NIAID, USA) are used instead of normal human blood lymphocytes for testing the antiviral effects of the compounds of the invention. Infected H9 cells are grown for test purposes in RPMI 1640 medium, 2% and/or 20% fetal calf serum.
The virus adsorption solution is centrifuged and the infected cell pellet is taken up in growth medium, so as to give 1×10^5 cells per ml. The cells infected in this way are pipetted at approx. 1×10^4 cells/well into the wells of 96-well microtiter plates (pellet infection). Alternatively the HIV is pipetted in separately only after preparation of the substance dilutions in the microtiter plates and after addition of the cells (supernatant infection).
The first vertical row of the microtiter plate contains only growth medium and cells that are not infected, but are otherwise treated exactly as described above (cell control). The second vertical row of the microtiter plate receives only HIV-infected cells (virus control) in growth medium. The other wells contain the compounds of the invention in various concentrations, starting from the wells of the 3rd vertical row of the microtiter plate, from which the test substances are diluted 2^10-fold in 2-fold steps.
Alternatively, supernatant infections are carried out (see above), in which the cells are sown in 96-well plates. The HIV virus is then added in a volume of 50 μl.
The test preparations are incubated at 37° C., until the formation of syncytia that is typical of HIV occurs in the untreated virus control (between day 3 and 6 after infection), which is then evaluated either microscopically or by p24 ELISA detection methods (Vironostika, BioMerieux, The Netherlands) or photometrically or fluorometrically using Alamar Blue indicator dye.
The IC50 values are determined as the concentration of the test substance at which 50% (approx. 20-100 syncytia) of the virus-induced syncytia are suppressed by the treatment with the compound of the invention. The cut-off values are set correspondingly in the ELISA test and in the photometric or fluorometric determination using Alamar Blue. In addition to determination of the antiviral effects, the treated cell cultures are also investigated microscopically with respect to cytotoxic, cytostatic or cytological changes and with respect to solubility. Active compounds that show cell-altering, cytotoxic findings in the concentration range of the activity are not assessed for their antiviral activity.

| SMILES | IC50 [µM] |
| --- | --- |
| O=C(c1cc(-c2cccc(C(F)(F)F)c2)n(-c2cccc(Cl)c2)n1)N1CCC(O)C1 (centres unmarked) [Example 2] | 0.05 |
| O=C(c1cc(-c2cccc(OC(F)(F)F)c2)n(-c2cccc(Cl)c2)n1)N1CCOCC1 [Example 4] | 0.05 |
| O=C(c1cc(-c2cccc(OC(F)(F)F)c2)n(-c2cccc(Cl)c2)n1)N1CCCOCC1 [Example 5] | 0.04 |
| O=C(c1cc(-c2cccc(OC(F)(F)F)c2)n(-c2cccc(Cl)c2)n1)N1CCSC1 [Example 6] | 0.1 |
| O=C(c1cc(-c2cccc(OC(F)(F)F)c2)n(-c2cccc(Cl)c2)n1)N1CC[C@@H](O)C1 [Example 10] | 0.05 |
| O=CN1CCN(C(=O)c2cc(-c3cccc(SC(F)(F)F)c3)n(-c3cccc(Cl)c3)n2)CC1 [Example 15, 4-{[1-(3-Chlorophenyl)-5-(3-trifluoromethylthiophenyl)-1H-pyrazol-3-yl]carbonyl}-piperazine-1-carbaldehyde] | 0.15 |
| N#Cc1cccc(-c2cc(C(=O)N3CCOCC3)nn2-c2cccc(Cl)c2)c1 [Example 32] | 0.04 |
| O=C(c1cc(-c2ccccc2)n(-c2cccc(Cl)c2)n1)N1CCOCC1 [Example 33] | 0.05 |
| O=C(c1cc(-c2ccccc2)n(-c2cccc(Cl)c2)n1)N1CCSC1 [Example 34] | 0.08 |
| COc1ccc(-c2cc(C(=O)N3CCOCC3)nn2-c2cccc(Cl)c2)cc1OC [Example 35] | 0.1 |
| O=C(c1cc(-c2cccc(C(F)(F)F)c2)n(-c2cccc(Cl)c2)n1)N1CCSC1 [Example 43] | 0.1 |

Source: patent US8314089B2, “Substituted pyrazolamides and their use” (AiCuris GmbH & Co. KG, priority 2008, dated 2012)
